“And” between values parts separate entries of the source, which are not always exact repeats. Equal entries are not always repeated. “Also recorded” adds a separate entry of the source. Structures can show the parent of a compound that is named as a salt.
Tests used:
[1] = system: volume-induced rhythmic urinary bladder contractions; experiment: volume-induced rhythmic urinary bladder contractions in urethane anaesthetised rats (rat model of overactive bladder); assay type: in vivo, Sprague Dawley rat; settings: for amplitude, change in percent from base value (Δ %) / frequency, change in percent from base value (Δ %) / frequency Post (20-60 min), mean / amplitude Post (30-60 min), mean: group mean; for presence/absence of bladder contractions (block grade), individual animal: 55 min period, Table 3; for duration of block, individual animal / number of episodes of block per animal / decrease in frequency, individual animal / increase in frequency, individual animal: individual animals; for mean voiding frequency decreased by: decrease; for mean pressure peaks of the amplitude diminished/reduced by: reduction
Excerpt: In the search for new drugs compounds are of interest which affect the central nervous system circuits involved in micturation as well as the peripheral nerves resulting in a decrease in the frequency of the voiding reflex without any effect on bladder contractility. […] The method utilises spontaneous, volume-induced contractions of the urinary bladder in anaesthetised rats and was developed and first described by Dray (J. Pharmacol. Meth. 13:157-165, 1985) to assess the central activity of substances with opioid properties on bladder function. As this model clearly mimics the interplay between smooth muscle function and neuronal control thereof, this model can be also used to predict drug effects in a different disease, i.e. irritable bowl syndrome (IBS).
Aim of the study: To characterise the effects of the analgesic flupirtine maleate on the bladder function we used the model volume-induced contractions of urinary bladder in urethane anaesthetised rats. […] The compounds at the dose range 0.1-10 mg/kg were intraduodenally administered to anaesthetised rats. The intraduodenal route was chosen to mimic the oral route and to avoid the use of solvents necessary for intravenous administration.
• Species: Sprague Dawley rat • Sex: Female • Body weight: 200-270 g • Breeder: Charles River, Sulzfeld • Food/Tap water: pellets, ssniff M/R15, ad libitum, Spezialdiäten GmbH, Soest/Wesffalen, FRG • Conditions in animal housing: Rats were kept conventionally in groups of 6 in macrolon cages No. 4. • Room temperature: 20-24° C. • Relative humidity: 40-70%, deviations from the maximum range caused during cleaning procedure are possible • Light/Dark rhythm: 12/12 h light/dark cycle, light on at 6:00 a.m.
The food was withdrawn 16 hours before intraduodenal drug administration. Tap water was available ad libitum.
Flupirtine maleate or oxybutynin hydrochloride were suspended in hydroxyethylcellulose (0.5%) in demineralised water. The substances were ground in a mortar with pistil. The suspensions were placed on a magnetic stirrer before and during dosing procedures. The substances were freshly prepared in the morning and applied intraduodenally in a volume of 0.4 ml/100 g body weight. Control rats received hydroxyethylcellulose (0.5%) i.d.
The filling material, consisting of small globules, was ground in a mortar with pistil. Thereafter the grounded material was suspended in hydroxyethylcellulose (0.5%) in demineralised water. The suspensions were placed on a magnetic stirrer before and during dosing procedures for 10 minutes. The suspensions were freshly prepared in the morning and applied intraduodenally in a volume of 0.4 ml/100 g body weight to rats. Control rats received the same amount of hydroxyethylcellulose (0.5%) i.d.
The continuous registration lasted 1 hr. […] The frequency was evaluated for 10 min before (baseline) and within the observation period in intervals of 10 minutes starting 5, 20, 35 and 50 min after drug administration. For intraduodenal dosing, drugs were administered via a duodenal polyethylene tube to animals in aqueous suspension of 0.5% hydroxyethylcellulose.

[2] = system: Haffner test in mice; settings: p.o.; cited from earlier work
[3] = system: Randall-Selitto test in rats; settings: p.o.; cited from earlier work
[4] = system: analgesic effect in rodents; settings: p.o.; cited from earlier work
[5] = system: mean arterial blood pressure; experiment: mean arterial blood pressure recorded in the urethane anaesthetised rats of the bladder model; settings: for mean BP, change in percent from base value (Δ %) / mean BP Post (30-60 min), mean: group mean; for mean arterial blood pressure decreased by: 10 mg/kg i.d., decrease
Protocol: The body temperature was maintained at 37° C. by means of an heated small operating table and 2 red light heating lamps. The left carotid artery was prepared and a catheter for continuous blood pressure measurement was inserted and connected to a Statham pressure transducer (Model P23 Db) and connected with a computer-controlled physiological recorder (PMS PR 800, Mumed Systems Ltd London, GB).
For intraduodenal drug administration a polyethylene catheter was inserted into the upper part of the duodenum, about 5 cm downwards from the pylorus and fixed with a purse-string suture. Bilateral ureters were ligated proximally to the bladder to prevent the bladder filling with urine. Urine of the kidneys was drained onto cotton swabs within the abdomen. The urinary bladder was catheterised via the urethra by use of PE 50 polyethylene tubing filled with physiological saline and secured in place by a ligature at the lower part of the urethra. Using a “T”-connector, the bladder catheter was connected to a Statham pressure transducer (Model P23 Db) connected with the physiological recorder (PMS PR 800) to measure intravesicular pressure and to a Infusion pump (TSE, FRG). Continuous recordings of intravesicular pressure and arterial blood pressure were captured onto a 4 channel Linearcorder WR3310 (Western Graphtec, Inc., USA). The experiment was started infusing (0.05 ml/min) the bladder with warmed saline (37-38° C.) to evoke rhythmic bladder contractions by means an infusion pump up to a maximal volume of 1.0 ml. The infusion is stopped after reaching the final volume or with the start of rhythmic bladder contractions.

[6] = 0.1 mg/kg i.d. single dose, listed as Flupirtine maleate

## CCOC(=O)Nc1ccc(NCc2ccc(F)cc2)nc1N [flupirtine maleate, [(2-Amino-6-(4-fluorophenyl)-methyl-amino-3-pyridinyl)-carbamicacid ethylester maleate]]
[1]; 0.1 mg/kg i.d. single dose
  block X/n (animals with blockade of bladder contraction): 2/3
  block, blockade duration (group, min-max): 4 to 8 min
  amplitude, change in percent from base value (Δ %): −9.0%
  frequency, change in percent from base value (Δ %): +3.4%
[1]; [6]
  amplitude, change in percent from base value (Δ %): No effect
  frequency, change in percent from base value (Δ %): No effect
  block X/n (animals with blockade of bladder contraction): 2 out of 3
[1]; 0.1 mg/kg i.d.
  presence/absence of bladder contractions (block grade), individual animal: no block; also recorded: (+) (+ or (+) = contractions abolished during 5-10 min time period)
  duration of block, individual animal: ≤ 4 min and ≤ 8 min
  number of episodes of block per animal: 1
[1]; 0.1 mg/kg i.d., listed as Flupirtine maleate
  duration of block, individual animal: 4 min and 8 min
[1]; 1.0 mg/kg i.d. single dose
  block X/n (animals with blockade of bladder contraction): 2 out of 3 and 2/3
  block, blockade duration (group, min-max): 4 to 18 min
  frequency Post (20-60 min), mean: 7.0-7.0 n/10 min
  frequency, change in percent from base value (Δ %): −8.7%
[1]; 1.0 mg/kg i.d.
  presence/absence of bladder contractions (block grade), individual animal: no block; also recorded: + (+ or (+) = contractions abolished during 5-10 min time period); also recorded: (+) (+ or (+) = contractions abolished during 5-10 min time period)
  decrease in frequency, individual animal: 17% and 23% and without influence and frequency by 17% and frequency by 23%
  duration of block, individual animal: 4 to 5 min and 16 min
  number of episodes of block per animal: 1 and 2
[1]; 3.0 mg/kg i.d. single dose
  block X/n (animals with blockade of bladder contraction): all three and 3/3
  block, blockade duration (group, min-max): 5 to 14 min
  amplitude Post (30-60 min), mean: 26.3-26.3 mm Hg
  frequency, change in percent from base value (Δ %): −40%
[1]; 3.0 mg/kg i.d.
  presence/absence of bladder contractions (block grade), individual animal: ++ (++ = contractions abolished during 10-30 min time period); also recorded: (+) (+ or (+) = contractions abolished during 5-10 min time period); also recorded: + (+ or (+) = contractions abolished during 5-10 min time period)
  decrease in frequency, individual animal: frequency by 29%; also recorded: by 50%; also recorded: frequency by 41%
  duration of block, individual animal: 14 min and block, 6 min block, starting and ≤ 5 min and 8 min
[1]; 3 mg/kg i.d.
  mean voiding frequency decreased by: 40%
[1]; 10 mg/kg i.d.
  animals with voiding contractions abolished over the whole observation period: 1/3
  presence/absence of bladder contractions (block grade), individual animal: ++ (++ = contractions abolished during 10-30 min time period); also recorded: +++ (+++ = contractions abolished during 30-60 min time period)
  mean voiding frequency decreased by: 57%
  decrease in frequency, individual animal: frequency by 68%; also recorded: in frequency by 87%; also recorded: block decrease in frequency by 57%
  duration of block, individual animal: 26 min and 29 min and 55 min and 39 min
  mean pressure peaks of the amplitude diminished/reduced by: 26%
[1]; 10 mg/kg i.d. single dose
  block X/n (animals with blockade of bladder contraction): 3/3
  block, blockade duration (group, min-max): 26 to 56 min
  amplitude, change in percent from base value (Δ %): −26%
  frequency, change in percent from base value (Δ %): −57%
[1]; rat, in vivo
  doses with therapeutic effect in the model volume-induced contractions in urinary bladder: 1-3 mg/kg p.o.
[2]
  ED50, analgesic effect in the Haffner test: 28 mg/kg p.o.
[3]
  ED50, Randall-Selitto test: 39 mg/kg p.o.
[4]
  doses of first analgesic efficacy: 25-50 mg/kg p.o.
[5]; 0.1 mg/kg i.d. single dose
  mean BP, change in percent from base value (Δ %): −4.7%
[5]; 1.0 mg/kg i.d. single dose
  mean BP, change in percent from base value (Δ %): −6.9%
[5]; 3.0 mg/kg i.d. single dose
  mean BP, change in percent from base value (Δ %): −12%
[5]; 10 mg/kg i.d. single dose
  mean BP Post (30-60 min), mean: 79.3-83.3 mm Hg
[5]
  mean arterial blood pressure decreased by: 11%

## CCN(CC)CC#CCOC(=O)C(O)(c1ccccc1)C1CCCCC1 (stereo not drawn) [oxybutynin hydrochloride, (α-Phenylcyclohexaneglycolicacid 4-[diethylamino]-2-butynyl ester hydrochloride]
[1]; 0.1 mg/kg i.d. single dose
  block X/n (animals with blockade of bladder contraction): 3/3
  block, blockade duration (group, min-max): 4 to 6 min
  amplitude Post (30-60 min), mean: 32.0-32.0 mm Hg
  amplitude, change in percent from base value (Δ %): −13%
  frequency Post (20-60 min), mean: 6.3-7.3 n/10 min
  frequency, change in percent from base value (Δ %): −12%
[1]; 0.1 mg/kg i.d.
  presence/absence of bladder contractions (block grade), individual animal: (+) (+ or (+) = contractions abolished during 5-10 min time period)
  mean pressure peaks of the amplitude diminished/reduced by: 13%
[1]; 0.1 mg/kg i.d., hydrochloride
  decrease in frequency, individual animal: decrease in frequency by 25%,; also recorded: frequency by 50%
  duration of block, individual animal: ≤ 6 min and 5 min and max. 4 min, initial increase,
  increase in frequency, individual animal: frequency by 17%; also recorded: by 9% during 5-15th min
  number of episodes of block per animal: 4 (2×) and 1
[1]; 0.1 mg/kg i.d., listed as Oxybutynin hydrochloride, hydrochloride
  number of episodes of block per animal: 1-4
[1]; 1.0 mg/kg i.d. single dose
  block X/n (animals with blockade of bladder contraction): 3/3
  amplitude, change in percent from base value (Δ %): −20%
  frequency, change in percent from base value (Δ %): −68%
[1]; 1.0 mg/kg i.d. single dose, hydrochloride
  amplitude Post (30-60 min), mean: 3/3 bl
[1]; 1.0 mg/kg i.d., hydrochloride
  presence/absence of bladder contractions (block grade), individual animal: +++ from 3 to 11th and 30 to (+++ = contractions abolished during 30-60 min time period); also recorded: ++ (++ = contractions abolished during 10-30 min time period)
  decrease in frequency, individual animal: contractions by 100%; also recorded: frequency by 62%; also recorded: by 80%
  duration of block, individual animal: 9 min and 30 min and 7 to 16 min and 4 to 11 min
  number of episodes of block per animal: 3-6 and 3 and 5
[1]; 1 mg/kg i.d.
  mean voiding frequency decreased by: 68%
  mean pressure peaks of the amplitude diminished/reduced by: 20%
[1]; 10 mg/kg i.d. single dose
  block X/n (animals with blockade of bladder contraction): 3/3
  amplitude, change in percent from base value (Δ %): −38%
  frequency, change in percent from base value (Δ %): +22%
[1]; 10 mg/kg i.d. single dose, hydrochloride
  block, blockade duration (group, min-max): 5 to 30 min
[1]; 10 mg/kg i.d. single dose, listed as Oxybutynin hydrochloride, hydrochloride
  block, blockade duration (group, min-max): 4 to 30 min
[1]; 10 mg/kg i.d., hydrochloride
  presence/absence of bladder contractions (block grade), individual animal: + (+ or (+) = contractions abolished during 5-10 min time period); also recorded: ++ (++ = contractions abolished during 10-30 min time period)
  duration of block, individual animal: 4 min (2×) and 30 min
  increase in frequency, individual animal: increase in frequency by 14%; also recorded: in frequency by 28%; also recorded: increase in frequency by 22%
  number of episodes of block per animal: 2 and 1 (2×)
[1]; 10 mg/kg i.d., increase
  mean frequency averaged over all animals increased by: 22%
[1]; 10 mg/kg i.d.
  mean pressure peaks of the amplitude diminished/reduced by: 38%
[1]; dose range 0.1-10 mg/kg i.d., generally
  reduction in the amplitude, of the basal value: no more than 60%
[5]; 0.1 mg/kg i.d. single dose
  mean BP, change in percent from base value (Δ %): −5%
[5]; 1.0 mg/kg i.d. single dose
  mean BP Post (30-60 min), mean: 80.0-85.0 mm Hg
  mean BP, change in percent from base value (Δ %): −15%
[5]; 10 mg/kg i.d. single dose
  mean BP, change in percent from base value (Δ %): −24%
[5]
  mean arterial blood pressure decreased by: 24%
